Source: the supplement of paper PMC10307832

How the values were obtained:
Assay in all cases: relative viability (nuclei count vs DMSO), 5 days (fraction); higher = more cells survive
[1] = compound: CC1=NN=C(O1)C2=NN=C(C=C2)N3CCC(CC3)OC4=C(C=CC(=C4)F)Cl + Cc1nc(NC(=O)N2CCC[C@H]2C(N)=O)sc1-c1ccnc(C(C)(C)C(F)(F)F)c1 [Alpelisib] (partner 2 µM)
Procedure, shortened: (§1)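 Relative viability was taken as the ratio of nuclei in treated wells to nuclei in vehicle wells. Lung cancer cell lines in 1536-well plates received compounds by pin tool one day after seeding, either one drug alone or a fixed anchor-drug dose plus five library-drug doses (not always all listed) in √10 steps. Nuclei were counted on 4× images after 5 days of treatment, and values are medians of duplicate plates.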

[2] = compound: CC(C)C[C@@H](C(=O)N[C@H](C(=O)OC1CCCC1)c1ccccc1)[C@H](O)C(=O)NO [Tosedostat] + Cc1cc(Nc2cc(N3CCN(C)CC3)nc(Sc3ccc(NC(=O)C4CC4)cc3)n2)n[nH]1 [Tozasertib] (partner 0.1 µM)
Procedure, shortened: as §1

[3] = compound: CC(C)C[C@@H](C(=O)N[C@H](C(=O)OC1CCCC1)c1ccccc1)[C@H](O)C(=O)NO [Tosedostat] + COc1cccc2cc(-c3nc([C@H]4CC[C@H](C(=O)O)CC4)n4ncnc(N)c34)[nH]c12 [OSI-027] (partner 0.5 µM)
Procedure, shortened: as §1

[4] = compound: CC(C)C[C@@H](C(=O)N[C@H](C(=O)OC1CCCC1)c1ccccc1)[C@H](O)C(=O)NO [Tosedostat] + NC(=O)Nc1cc(-c2cccc(F)c2)sc1C(=O)N[C@H]1CCCNC1 [AZD7762] (partner 0.2 µM)
Procedure, shortened: as §1

| Cell Line | relative viability ([1]; first compound 0.253 µM) | relative viability ([1]; first compound 0.8 µM) | relative viability ([1]; first compound 2.53 µM) | relative viability ([1]; first compound 8 µM) | relative viability ([2]; first compound 0.02 µM) | relative viability ([2]; first compound 0.06325 µM) | relative viability ([2]; first compound 0.2 µM) | relative viability ([2]; first compound 0.6325 µM) | relative viability ([2]; first compound 2 µM) | relative viability ([3]; first compound 0.02 µM) | relative viability ([3]; first compound 0.06325 µM) | relative viability ([3]; first compound 0.2 µM) | relative viability ([3]; first compound 0.6325 µM) | relative viability ([3]; first compound 2 µM) | relative viability ([4]; first compound 0.02 µM) | relative viability ([4]; first compound 0.06325 µM) | relative viability ([4]; first compound 0.2 µM) | relative viability ([4]; first compound 0.6325 µM) | relative viability ([4]; first compound 2 µM) |
| --- | --- | --- | --- | --- | --- | --- | --- | --- | --- | --- | --- | --- | --- | --- | --- | --- | --- | --- | --- |
| NCI-H322M | 0.0721 | 0.707 | 0.7 | 0.747 | 0.461 | 0.468 | 0.434 | 0.419 | 0.341 | 0.606 | 0.571 | 0.567 | 0.556 | 0.509 | 0.648 | 0.56 | 0.641 | 0.613 | 0.567 |
| LCLC-97TM1 | 0.28 |  | 0.237 | 0.292 | 0.216 | 0.203 | 0.184 | 0.165 | 0.172 | 0.603 | 0.451 | 0.442 | 0.418 | 0.497 | 0.291 | 0.209 | 0.164 | 0.197 | 0.195 |
| EPLC-272H | 0.925 |  | 1.14 | 0.917 | 0.7 | 0.172 | 0.16 | 0.124 | 0.107 | 0.281 | 0.265 | 0.301 | 0.263 | 0.24 | 0.248 | 0.232 | 0.267 | 0.153 | 0.192 |
| NCI-H460 | 0.356 | 0.359 | 0.394 | 0.391 | 0.313 | 0.502 | 0.687 | 0.325 | 0.264 | 0.817 | 0.604 | 0.595 | 0.647 | 0.679 | 0.728 | 0.66 | 0.709 | 0.665 | 0.705 |
| NCI-H647 | 0.724 | 0.715 | 0.764 | 0.704 | 0.37 | 0.262 | 0.339 | 0.175 | 0.367 | 0.541 | 0.667 | 0.515 | 0.4 | 0.585 | 0.664 | 0.454 | 0.368 | 0.366 | 0.398 |
| NCI-H2170 | 0.646 | 0.593 | 0.626 | 0.574 | 0.737 | 0.728 | 0.734 | 0.707 | 0.689 | 0.749 | 0.738 | 0.736 | 0.773 | 0.571 | 0.85 | 0.94 | 0.948 | 0.976 | 0.892 |
| NCI-H1395 | 0.962 | 0.897 | 0.995 | 1 | 0.757 | 0.748 | 0.768 | 0.678 | 0.675 | 0.59 | 0.618 | 0.644 | 0.672 | 0.621 | 0.429 | 0.42 | 0.414 | 0.398 | 0.38 |
| NCI-H358 | 0.72 | 0.829 | 0.778 | 0.822 | 0.0914 | 0.1 | 0.0977 | 0.0822 | 0.0804 | 0.925 | 0.745 | 0.362 | 0.349 | 0.329 | 0.71 | 0.471 | 0.434 | 0.317 | 0.34 |
| CAL-12T | 1.14 | 0.871 | 0.989 | 0.877 | 0.366 | 0.313 | 0.345 | 0.279 | 0.301 | 0.9 | 0.769 | 0.76 | 0.572 | 0.457 | 0.703 | 0.577 | 0.593 | 0.678 | 0.629 |
